US11453703B2, “Heterotandem bicyclic peptide complexes” (BicycleTX Limited, priority 2018, dated 2022)
Like-named read-outs stand apart in the source and are kept apart here. Starred links: 1 amine or outer side, 2 acyl side, 3 side chain; linkers in the order of their positions; H or OH if unused. Positions of bridges follow the written chain, without caps; N, C: chain ends. Non-standard residues stand in square brackets, D forms with d. Chains are numbered I, II in the order given. X1 = O=C(CCc1cn(CCOCCOCCOCCOCCOCCOCCOCCOCCOCCOCCOCCOCCC(=O)[*:2])nn1)NCCC(=O)[*:1]; TATA = O=C(CC[*:1])N1CN(C(=O)CC[*:2])CN(C(=O)CC[*:3])C1; 1Nal = N[C@@H](Cc1cccc2ccccc12)C(=O)O; Hyp = O=C(O)[C@@H]1C[C@@H](O)CN1; hArg = N=C(N)NCCCC[C@H](N)C(=O)O; tBuAla = CC(C)(C)C[C@H](N)C(=O)O; Nle = CCCC[C@H](N)C(=O)O; Sar = CNCC(=O)O

Columns and labels:
CD137 [1] = target: T1, CD137 (Homo sapiens, UniProt Q07011); experiment: CD137 reporter assay, co-culture with EphA2 tumour cells; assay type: cell-based; design: host or cells: Jurkat reporter cells
Method: Culture medium referred to as R1 media is prepared by adding 1% FBS to RPMI-1640 (component of Promega kit CS196005). Serial dilutions of test articles in R1 are prepared in a sterile 96 well-plate. Use 25 μl per well of test articles or R1 (as a background control) to designated wells in white cell culture plate. Tumour cells* are harvested and resuspended at a concentration of 400,000 cells/mL in R1 media. Twenty five (25) μL/well tumour cells are used in white cell culture plate. Jurkat cells (Promega kit CS196005, 0.5 mL) are thawed in the water bath and then added to 5 ml pre-warmed R1 medium. Twenty five (25) μL/well Jurkat cells are used in white cell culture plate. Incubate the cells and test articles for 6h at 37° C., 5% CO2. At the end of 6 h, add 75 μl/well Bio-Glo™ (Promega) and incubate for 10 min before reading luminescence in a plate reader (Clariostar, BMG). The fold change relative to cells (Jurkat cells+Cell line used in co-culture) is calculated and plotted in GraphPad Prism as log(agonist) vs response to determine EC50 (nM) and Fold Induction over background (Max)

CD137 [2] = target: T1, CD137; experiment: CD137 reporter assay, co-culture with Nectin-4 tumour cells; assay type: cell-based; design: host or cells: Jurkat reporter cells;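 also: jurkat reporter cells co-cultured with tumour cells and test article for 6 h, luminescence signal relative to Jurkat plus tumour cells lacking test article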
[3] = tumour target Nectin4, co-culture with H1376, 6 h

T1 sequence (Q07011 24-255): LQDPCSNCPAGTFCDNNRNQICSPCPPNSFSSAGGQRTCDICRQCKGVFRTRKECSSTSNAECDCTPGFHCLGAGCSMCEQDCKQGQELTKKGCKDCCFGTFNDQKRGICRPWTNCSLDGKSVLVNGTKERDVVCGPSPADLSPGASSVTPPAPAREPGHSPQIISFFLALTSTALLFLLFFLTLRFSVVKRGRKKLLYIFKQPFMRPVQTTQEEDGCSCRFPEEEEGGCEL

Row | Molecule | EC50 (CD137 [2]) [nM] | Fold Induction over Background (CD137 [2]; [3]) [fold] | other results
1 | CCCC[C@@H]1NC(=O)[C@H](Cc2ccc(O)cc2)NC(=O)[C@@H]2CCCN2C(=O)[C@H](CC(=O)O)NC(=O)[C@H](C)NC(=O)[C@H](Cc2ccccc2)NC(=O)[C@@H]2CSCCC(=O)N3CN(CN(C3)C(=O)CCSC[C@@H](C(=O)N[C@@H](CNC(=O)CCOCCOCCOCCOCCOCCOCCOCCOCCOCCOCCOCCOCCn3cc(CCC(=O)NCCC(=O)N(C)CC(=O)N(C)CC(=O)N(C)CC(=O)N(C)CC(=O)N(C)CC(=O)N(C)CC(=O)N(C)CC(=O)N(C)CC(=O)N(C)CC(=O)N(C)CC(=O)N[C@@H](C)C(=O)N[C@@H](CCCCNC(=N)N)C(=O)N[C@@H](CC(=O)O)C(=O)N[C@H]4CSCCC(=O)N5CN6CN(C5)C(=O)CCSC[C@H](NC(=O)[C@H](CC(C)C)NC(=O)[C@@H]5CCCN5C(=O)[C@H](CC(N)=O)NC(=O)[C@H](C(C)C)NC(=O)[C@H](CC(C)C)NC(=O)[C@@H]5C[C@@H](O)CN5C4=O)C(=O)N[C@@H](CC(C)C)C(=O)N[C@@H](Cc4c[nH]cn4)C(=O)N4CCC[C@H]4C(=O)N[C@H](CC(=O)O)C(=O)N[C@@H](Cc4c[nH]c5ccccc45)C(=O)N[C@@H](CCCCNC(=N)N)C(=O)N[C@H](C(N)=O)CSCCC6=O)nn3)C(N)=O)NC1=O)C(=O)CCSC[C@H](NC(=O)[C@H](C)NC(C)=O)C(=O)N[C@@H]([C@@H](C)CC)C(=O)N[C@@H](CCC(=O)O)C(=O)N[C@@H](CCC(=O)O)C(=O)NCC(=O)N[C@@H](CCC(N)=O)C(=O)N[C@@H](Cc1ccc(O)cc1)C(=O)N2 [BCY7985] |  |  | induction of CD137 cell activity (CD137 [1]; Promega CD137 luciferase reporter assay, in the presence of EphA2-expressing HT1080 cells (FIG. 3)): strong induction of CD137 cell activity; CD137 induction (CD137 [1]; in the absence of HT1080 cells (FIG. 3)): no CD137 induction; Fold Induction over Background (CD137 [1]; tumour target EphA2, co-culture with SC-OV-3, 6 h): 15 fold
2 | CCCC[C@@H]1NC(=O)[C@H](Cc2ccc(O)cc2)NC(=O)[C@@H]2CCCN2C(=O)[C@H](CC(=O)O)NC(=O)[C@H](C)NC(=O)[C@H](Cc2ccccc2)NC(=O)[C@@H]2CSCCC(=O)N3CN(CN(C3)C(=O)CCSC[C@@H](C(=O)N[C@@H](CNC(=O)CCOCCOCCOCCOCCOCCOCCOCCOCCOCCOCCOCCOCCn3cc(CCC(=O)NCCC(=O)N(C)CC(=O)N(C)CC(=O)N(C)CC(=O)N(C)CC(=O)N(C)CC(=O)N(C)CC(=O)N(C)CC(=O)N(C)CC(=O)N(C)CC(=O)N(C)CC(=O)N[C@H](C(=O)NCC(=O)N4CCC[C@H]4C(=O)N[C@H]4CSCCC(=O)N5CN6CN(C5)C(=O)CCSC[C@H](NC(=O)[C@@H]5CCCN5C(=O)[C@H]([C@@H](C)O)NC(=O)[C@@H]5CCCN5C(=O)[C@H](CC(=O)O)NC(=O)[C@H](Cc5c[nH]c7ccccc57)NC(=O)[C@H](CC(C)C)NC4=O)C(=O)N[C@@H](C)C(=O)N[C@@H](CC(N)=O)C(=O)N[C@@H](CC(C)C)C(=O)N[C@@H](Cc4c[nH]cn4)C(=O)N[C@@H](CC(C)C)C(=O)N[C@@H](CCCCNC(=N)N)C(=O)N[C@H](C(N)=O)CSCCC6=O)C(C)C)nn3)C(N)=O)NC1=O)C(=O)CCSC[C@H](NC(=O)[C@H](C)NC(C)=O)C(=O)N[C@@H]([C@@H](C)CC)C(=O)N[C@@H](CCC(=O)O)C(=O)N[C@@H](CCC(=O)O)C(=O)NCC(=O)N[C@@H](CCC(N)=O)C(=O)N[C@@H](Cc1ccc(O)cc1)C(=O)N2 [BCY8943] |  |  | fold induction at 0.1 µM (CD137 [1]; tumour target EphA2, co-culture with PC3, at 100 nM, read-out: Fold Induction over Background at 100 nM): < 2
3 | CCCC[C@@H]1NC(=O)[C@H](Cc2ccc(O)cc2)NC(=O)[C@@H]2CCCN2C(=O)[C@H](CC(=O)O)NC(=O)[C@H](C)NC(=O)[C@H](Cc2ccccc2)NC(=O)[C@@H]2CSCCC(=O)N3CN(CN(C3)C(=O)CCSC[C@@H](C(=O)N[C@@H](C)C(N)=O)NC1=O)C(=O)CCSC[C@H](NC(C)=O)C(=O)N[C@@H](CC(C)(C)C)C(=O)N1CCC[C@H]1C(=O)N[C@@H](CCCCNC(=O)CCc1cn(CC(=O)N[C@H]3CSCCC(=O)N4CN5CN(C4)C(=O)CCSC[C@H](NC(=O)[C@@H](CC(=O)O)NC(=O)[C@H](Cc4cccc6ccccc46)NC(=O)[C@@H]4CCCN4C3=O)C(=O)N[C@@H](CCSC)C(=O)N[C@@H](CCCCNC(=N)N)C(=O)N[C@@H](CC(=O)O)C(=O)N[C@@H](Cc3c[nH]c4ccccc34)C(=O)N[C@@H](CO)C(=O)N[C@@H]([C@@H](C)O)C(=O)N3CCC[C@H]3C(=O)N3C[C@H](O)C[C@H]3C(=O)N[C@@H](Cc3c[nH]c4ccccc34)C(=O)N[C@H](C(N)=O)CSCCC5=O)nn1)C(=O)N[C@H](C)C(=O)N1CCC[C@H]1C(=O)N[C@@H](Cc1ccc(O)cc1)C(=O)N2 [BCY11373] |  |  | Fold Induction over Background (CD137 [2]): 74 fold; EC50 (CD137 [2]; tumour target Nectin4, co-culture with H1376, 6 h, read-out: EC50): 0.16 nM
4 | CCCC[C@@H]1NC(=O)[C@H](Cc2ccc(O)cc2)NC(=O)[C@@H]2CCCN2C(=O)[C@H](CC(=O)O)NC(=O)[C@H](C)NC(=O)[C@H](Cc2ccccc2)NC(=O)[C@@H]2CSCCC(=O)N3CN(CN(C3)C(=O)CCSC[C@@H](C(=O)N[C@@H](C)C(N)=O)NC1=O)C(=O)CCSC[C@H](NC(C)=O)C(=O)N[C@@H](CC(C)(C)C)C(=O)N1CCC[C@H]1C(=O)N[C@@H](CCC(=O)O)C(=O)N[C@H](CCCCNC(=O)CCc1cn(CC(=O)N[C@H]3CSCCC(=O)N4CN5CN(C4)C(=O)CCSC[C@H](NC(=O)[C@@H](CC(=O)O)NC(=O)[C@H](Cc4cccc6ccccc46)NC(=O)[C@@H]4CCCN4C3=O)C(=O)N[C@@H](CCSC)C(=O)N[C@@H](CCCCNC(=N)N)C(=O)N[C@@H](CC(=O)O)C(=O)N[C@@H](Cc3c[nH]c4ccccc34)C(=O)N[C@@H](CO)C(=O)N[C@@H]([C@@H](C)O)C(=O)N3CCC[C@H]3C(=O)N3C[C@H](O)C[C@H]3C(=O)N[C@@H](Cc3c[nH]c4ccccc34)C(=O)N[C@H](C(N)=O)CSCCC5=O)nn1)C(=O)N1CCC[C@H]1C(=O)N[C@@H](Cc1ccc(O)cc1)C(=O)N2 [BCY11374] | 0.091 | 72 | 
5 | CCCC[C@@H]1NC(=O)[C@H](Cc2ccc(O)cc2)NC(=O)[C@@H]2CCCN2C(=O)[C@H](CC(=O)O)NC(=O)[C@H](C)NC(=O)[C@H](Cc2ccccc2)NC(=O)[C@@H]2CSCCC(=O)N3CN(CN(C3)C(=O)CCSC[C@@H](C(=O)N[C@@H](CNC(=O)CCc3cn(CC(=O)N[C@H]4CSCCC(=O)N5CN6CN(C5)C(=O)CCSC[C@H](NC(=O)[C@@H](CC(=O)O)NC(=O)[C@H](Cc5cccc7ccccc57)NC(=O)[C@@H]5CCCN5C4=O)C(=O)N[C@@H](CCSC)C(=O)N[C@@H](CCCCNC(=N)N)C(=O)N[C@@H](CC(=O)O)C(=O)N[C@@H](Cc4c[nH]c5ccccc45)C(=O)N[C@@H](CO)C(=O)N[C@@H]([C@@H](C)O)C(=O)N4CCC[C@H]4C(=O)N4C[C@H](O)C[C@H]4C(=O)N[C@@H](Cc4c[nH]c5ccccc45)C(=O)N[C@H](C(N)=O)CSCCC6=O)nn3)C(N)=O)NC1=O)C(=O)CCSC[C@H](NC(C)=O)C(=O)N[C@@H](CC(C)(C)C)C(=O)N1CCC[C@H]1C(=O)N[C@@H](CCC(=O)O)C(=O)N[C@H](C)C(=O)N1CCC[C@H]1C(=O)N[C@@H](Cc1ccc(O)cc1)C(=O)N2 [BCY11375] | 0.23 | 72 | 
6 | I: [Sar][Sar][Sar][Sar][Sar][Sar][Sar][Sar][Sar][Sar]CP[1Nal][dD]CM[hArg]DWSTP[Hyp]WC-NH2 / II: Ac-C[tBuAla]PE[dK]PYCFADPY[Nle]CA-NH2 (linker I:11-I:15-I:25, II:1-II:8-II:15 via TATA; linker I:N-II:5 via X1) [BCY10569] | 1.2 | 52 | 
7 | I: [Sar][Sar][Sar][Sar][Sar][Sar][Sar][Sar][Sar][Sar]CP[1Nal][dD]CM[hArg]DWSTP[Hyp]WC-NH2 / II: Ac-C[tBuAla]PK[dA]PYCFADPY[Nle]CA-NH2 (linker I:11-I:15-I:25, II:1-II:8-II:15 via TATA; linker I:N-II:4 via X1) [BCY10567] |  | 45 | 
